Patent US8962608B2, “Cycloalkylnitrile pyrazole carboxamides as janus kinase inhibitors” (Merck Sharp & Dohme Corp., priority 2011, dated 2015)

Columns and labels:
[1] = molecular target: JAK2 (recombinant purified GST-tagged catalytic domain) (Homo sapiens (Human), UniProt O60674); assay: biochemical;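 note: biochemical JAK kinase assay with HTRF detection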
[2] = molecular target: JAK1 (recombinant purified GST-tagged catalytic domain) (Homo sapiens (Human), UniProt P23458); assay: biochemical;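 note: biochemical assay with HTRF read-out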
Chain of JAK1 (recombinant purified GST-tagged catalytic domain) (P23458 875-1153): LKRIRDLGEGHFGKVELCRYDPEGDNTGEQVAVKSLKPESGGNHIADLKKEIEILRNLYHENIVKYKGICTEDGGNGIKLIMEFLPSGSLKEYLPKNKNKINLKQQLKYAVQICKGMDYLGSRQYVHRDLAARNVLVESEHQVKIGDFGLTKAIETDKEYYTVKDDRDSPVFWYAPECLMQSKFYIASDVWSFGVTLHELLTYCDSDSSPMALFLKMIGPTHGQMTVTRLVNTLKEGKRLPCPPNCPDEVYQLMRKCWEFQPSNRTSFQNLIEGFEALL

Chain of JAK2 (recombinant purified GST-tagged catalytic domain) (O60674 849-1124): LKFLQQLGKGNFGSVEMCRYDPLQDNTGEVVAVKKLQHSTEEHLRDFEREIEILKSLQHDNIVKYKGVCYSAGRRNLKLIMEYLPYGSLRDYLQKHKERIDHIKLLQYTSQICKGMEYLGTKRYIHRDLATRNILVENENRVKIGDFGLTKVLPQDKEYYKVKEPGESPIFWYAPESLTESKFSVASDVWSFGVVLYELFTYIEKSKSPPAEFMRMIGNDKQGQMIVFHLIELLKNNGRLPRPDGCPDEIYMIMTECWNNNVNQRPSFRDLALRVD

Row | Compound | IC50 [1] [nM] | IC50 [2] [nM]
1 | CN(CC(F)F)[C@H]1CC[C@H](n2cc(C(N)=O)c(Nc3ccc(S(=O)(=O)C(F)(F)F)cc3)n2)[C@@H](C#N)C1 (single isomer, unassigned) [Example 28-114, 1-{(1S,2S,4S or 1R,2R,4R)-2-cyano-4-[(2,2-difluoroethyl)(methyl)amino]cyclo-hexyl}-3-({4-[(trifluoro-methyl)sulfonyl]phenyl}amino)-1H-pyrazole-4-carboxamide] | 29 | 3
2 | N#C[C@H]1CCC[C@@H](O)C1n1cc(C(N)=O)c(Nc2ccccc2)n1 (mixture of isomers) [Example 2-6, 1-[(1R,2S,6R and 1S,2R,6S)-2-cyano-6-hydroxycyclohexyl]-3-(phenylamino)-1H-pyrazole-4-carboxamide] | 1000 | 370
3 | N#C[C@@H]1C[C@@H](NC2CCC2)CC[C@H]1n1cc(C(N)=O)c(Nc2ccc(C(F)(F)F)cc2)n1 (single isomer, unassigned) [Example 30-18, 1-[(1R,2R,4S or 1S,2S,4R)-2-cyano-4-(cyclobutyl-amino)cyclohexyl]-3-{[4-(trifluoromethyl)phenyl]amino}-1H-pyrazole-4-carboxamide] | 136 | 2
4 | CN(C1COC1)[C@H]1CC[C@@H](n2cc(C(N)=O)c(Nc3ccc(C(F)(F)F)cc3)n2)[C@H](C#N)C1 (single isomer, unassigned) [Example 30-1, 1-{(1R,2R,4S or 1S,2S,4R)-2-Cyano-4-[methyl(oxetan-3-yl)amino]cyclohexyl}-3-{[4-(trifluoromethyl)phenyl]amino}-1H-pyrazole-4-carboxamide] | 106 | 9
5 | N#C[C@H]1C[C@H](O)CC[C@@H]1n1cc(C(N)=O)c(Nc2ccc(C(F)(F)F)cc2)n1 (single isomer, unassigned) [Example 25-5, 1-[(1S,2S,4R or 1R,2R,4S)-2-cyano-4-hydroxycyclohexyl]-3-{[4-(trifluoromethyl)phenyl]amino}-1H-pyrazole-4-carboxamide] | 10 | 1
6 | N#C[C@@H]1CCCC[C@H]1n1cc(C(N)=O)c(Nc2ccc(C(F)F)nc2)n1 (single isomer, unassigned) [Example 17-55, 1-[(1R,2R or 1S,2S)-2-cyanocyclohexyl]-3-{[6-(difluoromethyl)pyridin-3-yl]amino}-1H-pyrazole-4-carboxamide] | 255 | 41
7 | COC(=O)C1CC[C@H](C#N)C(n2cc(C(N)=O)c(Nc3ccccc3)n2)C1 (mixture of isomers) [Example 2-4, methyl (3R,4R and 3S,4S)-3-[4-carbamoyl-3-(phenylamino)-1H-pyrazol-1-yl]-4-cyanocyclohexanecarboxylate] | > 1500 | 423
8 | N#C[C@H]1C[C@H](N2CCC2)CC[C@@H]1n1cc(C(N)=O)c(Nc2ccc(C(F)(F)F)cc2)n1 (single isomer, unassigned) [Example 28-131, 1-[(1S,2S,4R or 1R,2R,4S)-4-azetidin-1-yl-2-cyanocyclohexyl]-3-{[4-(trifluoromethyl)phenyl]amino}-1H-pyrazole-4-carboxamide] | 51 | 0.9
9 | N#C[C@@H]1CCC[C@@H](O)C1n1cc(C(N)=O)c(Nc2ccccc2)n1 (mixture of isomers) [Example 2-5, 1-[(1R,2R,6R and 1S,2S,6S)-2-cyano-6-hydroxycyclohexyl]-3-(phenylamino)-1H-pyrazole-4-carboxamide] | > 1500 | 700
10 | N#C[C@H]1C[C@H](NCC2(O)CC2)CC[C@@H]1n1cc(C(N)=O)c(Nc2ccc(C(F)(F)F)cc2)n1 (single isomer, unassigned) [Example 28-35, 1-[(1S,2S,4R or 1R,2R,4S)-2-cyano-4-{[(1-hydroxycyclo-propyl)methyl]amino}cyclo-hexyl]-3-{[4-(trifluoro-methyl)phenyl]amino}-1H-pyrazole-4-carboxamide] | 48 | 1

Further lines, results first:

Row | IC50 [1] [nM] | IC50 [2] [nM] | Compound
11 | 17 | 6 | COC(=O)c1ncc(Nc2nn([C@H]3CCCC[C@@H]3C#N)cc2C(N)=O)cc1C (single isomer, unassigned) [Example 17-78, methyl 5-({4-carbamoyl-1-[(1R,2R or 1S,2S)-2-cyanocyclohexyl]-1H-pyrazol-3-yl}amino)-3-methylpyridine-2-carboxylate]
12 | 33 | 0.3 | C[N+]1([C@H]2CC[C@H](n3cc(C(N)=O)c(Nc4ccc(C(F)(F)F)cc4)n3)[C@@H](C#N)C2)CCC1 (single isomer, unassigned) [Example 31-1, 1-((1S,3S,4S or 1R,3R,4R)-4-(4-carbamoyl-3-((4-(trifluoromethyl)phenyl)amino)-1H-pyrazol-1-yl)-3-cyanocyclohexyl)-1-methylazetidin-1-ium 2,2,2-trifluoroacetate]
13 | 14 | 2 | N#C[C@H]1CCCC[C@@H]1n1cc(C(N)=O)c(Nc2cnc3ccc(F)cc3c2)n1 (single isomer, unassigned) [Example 17-48, 1-[(1S,2S or 1R,2R)-2-cyanocyclohexyl]-3-[(6-fluoroquinolin-3-yl)amino]-1H-pyrazole-4-carboxamide]
14 | 36 | 5 | N#C[C@H]1C[C@@H](NC2(C(F)(F)F)CC2)CC[C@@H]1n1cc(C(N)=O)c(Nc2ccc(Cl)cc2)n1 (single isomer, unassigned) [Example 28-226, 3-[(4-chlorophenyl)amino]-1-[(1S,2S,4S or 1R,2R,4R)-2-cyano-4-{[1-(trifluoro-methyl)cyclopropyl]a-mino}cyclohexyl]-1H-pyrazole-4-carboxamide]
15 | 40 | 2 | N#C[C@H]1C[C@H](N2CCC2)CC[C@@H]1n1cc(C(N)=O)c(Nc2ccc(OC(F)(F)F)cc2)n1 (single isomer, unassigned) [Example 28-70, 1-[(1S,2S,4R or 1R,2R,4S)-4-azetidin-1-yl-2-cyanocyclohexyl]-3-{[4-(trifluoromethoxy)phenyl]amino}-1H-pyrazole-4-carboxamide]
16 | 26 | 12 | N#C[C@H]1CCCC[C@@H]1n1cc(C(N)=O)c(Nc2ccc(C3CC3)nc2)n1 (single isomer, unassigned) [Example 17-80, 1-[(1R,2R or 1S,2S)-2-cyanocyclohexyl]-3-[(6-cyclopropylpyridin-3-yl)amino]-1H-pyrazole-4-carboxamide]
17 | 13 | 1 | N#C[C@H]1C[C@@H](N2CC(F)C2)CC[C@@H]1n1cc(C(N)=O)c(Nc2ccc(S(=O)(=O)C(F)(F)F)cc2)n1 (single isomer, unassigned) [Example 28-113, 1-[(1S,2S,4S or 1R,2R,4R)-2-cyano-4-(3-fluoroazetidin-1-yl)cyclohexyl]-3-({4-[(trifluoro-methyl)sulfonyl]phenyl}amino)-1H-pyrazole-4-carboxamide]
18 | 6 | 0.45 | N#C[C@H]1C[C@H](N2CC(F)C2)CC[C@@H]1n1cc(C(N)=O)c(Nc2ccc(S(=O)(=O)C(F)(F)F)cc2)n1 (single isomer, unassigned) [Example 28-112, 1-[(1S,2S,4R or 1R,2R,4S)-2-cyano-4-(3-fluoroazetidin-1-yl)cyclohexyl]-3-({4-[(trifluoro-methyl)sulfonyl]phenyl}amino)-1H-pyrazole-4-carboxamide]
